Data: ChEMBL document CHEMBL1649332, “Update on fusidic acid (CEM-102) tested against Neisseria gonorrhoeae and Chlamydia trachomatis” (Antimicrob Agents Chemother, 2010)
Values after ≈ are worked out from the molar mass of the structure shown. Active and inactive are the calls of the source. No cut-off for these calls is given here.

Legend:
Neisseria gonorrhoeae [1] = assay: Antimicrobial activity against Neisseria gonorrhoeae isolates by CLSI agar dilution method; assay type: functional
Chlamydia trachomatis = assay: Antimicrobial activity against Chlamydia trachomatis isolates; assay type: functional; details: for MBC / MIC90: Chlamydia trachomatis
Neisseria gonorrhoeae [2] = assay: Antimicrobial activity against Neisseria gonorrhoeae assessed as susceptible isolates by EUCAST method; assay type: functional
Neisseria gonorrhoeae [3] = assay: Antimicrobial activity against Neisseria gonorrhoeae assessed as resistant isolates by EUCAST method; assay type: functional
Neisseria gonorrhoeae [4] = assay: Antimicrobial activity against Neisseria gonorrhoeae assessed as susceptible isolates by CLSI method; assay type: functional
Plasma = assay: Trough plasma concentration in human; assay type: ADME, cell-free
Neisseria gonorrhoeae [5] = assay: Antimicrobial activity against Neisseria gonorrhoeae isolates up to 2 ug/ml by CLSI agar dilution method; assay type: functional, organism-based
Neisseria gonorrhoeae [6] = assay: Antimicrobial activity against Neisseria gonorrhoeae assessed as resistant isolates by CLSI method; assay type: functional

Structure (SMILES) | MIC90 (Chlamydia trachomatis) | MIC90 (Neisseria gonorrhoeae [1]) | Cmin (Plasma) | MIC50 (Neisseria gonorrhoeae [1]) | MBC90 (Chlamydia trachomatis) | MBC (Chlamydia trachomatis) | Activity (Neisseria gonorrhoeae [2]) | Activity (Neisseria gonorrhoeae [3]) | Activity (Neisseria gonorrhoeae [4]) | Activity (Neisseria gonorrhoeae [5]) | Activity (Neisseria gonorrhoeae [6])
CC[C@H]1OC(=O)[C@H](C)[C@@H](O[C@H]2C[C@@](C)(OC)[C@@H](O)[C@H](C)O2)[C@H](C)[C@@H](O[C@@H]2O[C@H](C)C[C@H](N(C)C)[C@H]2O)[C@](C)(O)C[C@@H](C)CN(C)[C@H](C)[C@@H](O)[C@]1(C)O [AZITHROMYCIN] | 0.12 µg/mL (≈ 0.16 µM) |  |  | 0.25 µg/mL (≈ 0.334 µM) | 0.12 µg/mL (≈ 0.16 µM) | 0.015 µg/mL (≈ 0.02 µM) | 80% | 5.7% |  |  | 
CO/N=C(\C(=O)N[C@@H]1C(=O)N2C(C(=O)O)=C(CSc3nc(=O)c(O)nn3C)CS[C@H]12)c1csc(N)n1 [CEFTRIAXONE] |  |  |  |  |  |  | 100% | 0% | 100% |  | 
CC1(C)S[C@@H]2[C@H](NC(=O)Cc3ccccc3)C(=O)N2[C@H]1C(=O)O [PENICILLIN G] |  |  |  | 1 µg/mL (≈ 2.99 µM) |  |  | 22.9% | 45.7% | 22.9% |  | 45.7%
CN(C)[C@@H]1C(O)=C(C(N)=O)C(=O)[C@@]2(O)C(O)=C3C(=O)c4c(O)cccc4[C@@](C)(O)[C@H]3C[C@@H]12 [TETRACYCLINE] |  |  |  | 1 µg/mL (≈ 2.25 µM) |  |  | 45.7% | 34.3% | 22.9% |  | 34.3%

The next lines start with results.

MIC90 (Chlamydia trachomatis) | MIC90 (Neisseria gonorrhoeae [1]) | Cmin (Plasma) | Structure (SMILES) | MIC50 (Neisseria gonorrhoeae [1]) | MBC90 (Chlamydia trachomatis) | MBC (Chlamydia trachomatis) | Activity (Neisseria gonorrhoeae [2]) | Activity (Neisseria gonorrhoeae [3]) | Activity (Neisseria gonorrhoeae [4]) | Activity (Neisseria gonorrhoeae [5]) | Activity (Neisseria gonorrhoeae [6])
0.06 µg/mL (≈ 0.0802 µM) |  |  | CC[C@H]1OC(=O)[C@H](C)[C@@H](O[C@H]2C[C@@](C)(OC)[C@@H](O)[C@H](C)O2)[C@H](C)[C@@H](O[C@@H]2O[C@H](C)C[C@H](N(C)C)[C@H]2O)[C@](C)(OC)C[C@@H](C)C(=O)[C@H](C)[C@@H](O)[C@]1(C)O [CLARITHROMYCIN] |  | 0.06 µg/mL (≈ 0.0802 µM) | 0.015 µg/mL (≈ 0.0201 µM) |  |  |  |  | 
0.06 µg/mL |  |  | C[C@H]1c2cccc(O)c2C(=O)C2=C(O)[C@]3(O)C(=O)C(C(N)=O)=C(O)[C@@H](N(C)C)[C@@H]3[C@@H](O)[C@@H]21.O [DOXYCYCLINE] |  | 0.06 µg/mL | 0.015 µg/mL |  |  |  |  | 
0.5 µg/mL (≈ 0.968 µM) | 1 µg/mL (≈ 1.94 µM) | 80 µg/mL | CC(=O)O[C@H]1C[C@@]2(C)[C@@H](C[C@@H](O)[C@H]3[C@@]4(C)CC[C@@H](O)[C@@H](C)[C@@H]4CC[C@@]32C)/C1=C(\CCC=C(C)C)C(=O)O [FUSIDIC ACID] | 0.5 µg/mL (≈ 0.968 µM) | 0.5 µg/mL (≈ 0.968 µM) | 0.12 µg/mL (≈ 0.232 µM) |  |  |  | Active | 
0.06 µg/mL (≈ 0.0739 µM) |  |  | CC[C@H]1OC(=O)[C@H](C)C(=O)[C@H](C)[C@@H](O[C@@H]2O[C@H](C)C[C@H](N(C)C)[C@H]2O)[C@](C)(OC)C[C@@H](C)C(=O)[C@H](C)[C@H]2N(CCCCn3cnc(-c4cccnc4)c3)C(=O)O[C@]12C [TELITHROMYCIN] |  | 0.06 µg/mL (≈ 0.0739 µM) | 0.015 µg/mL (≈ 0.0185 µM) |  |  |  |  | 
